Measurements from patent US9827210B2, “Treatment or prophylaxis of a neurological or neuropsychiatric disorders via ocular administration” (Phovitreal Pty Ltd, priority 2007, dated 2017).

What was measured:
[1] = system: rats with experimental Parkinson's disease; test: 6-hydroxy dopamine model of Parkinson's disease in rats, intraocular or intravitreal injection; assay type: in vivo; conditions: bilateral 6-hydroxy dopamine lesion, 2 μl of 10 mMol solution into vitreous humor of both eyes on days 2, 3 and 4 after surgery, versus PD+IOVeh (70% DMSO)
Text: At appropriate concentrations, the neurotoxin 6-hydroxy dopamine produces specific and permanent depletion of dopamine in the brain and more specifically of the nigro-striatal dopamine system (Ungerstedt, U. et al, Adv. Neurol., 5, 421, 1974; Willis, G. L. & Armstrong, S. A., Brain Res. Rev., 27, 177, 1998). Intracranial injections of 6-hydroxy dopamine were used to produce a model of Parkinson's disease (and schizophrenia). Bilateral lesions produced a vegetative, akinetic syndrome in which there is a lack of voluntary movement, hunched posture and body weight loss accompanied by a loss in the ability to eat and drink.
b) After preparatory surgery that permitted access to the brain, rats were induced with bilateral experimental Parkinson's disease by injection of the neurotoxin 6-hydroxy dopamine into the nigro-striatal dopamine system. On days 2, 3 and 4 after surgery a single 2 μl intraocular or intravitreal injection was made into the vitreous humor of both eyes. The solution injected was either a 10 mMol solution of ML-23 (PD+IODrug) or a 10 mMol solution of vehicle (PD+IOVeh). The vehicle used was 70% DMSO. For comparison, a control group was not made Parkinsonian but received intraocular or intravitreal injection of vehicle in the same volume as the experimental groups (C+IOVeh). […]

[2] = system: Sprague-Dawley rats pre-treated with dl-amphetamine; test: dl-amphetamine-induced psychosis in rats, intravitreal injection, motor tests; assay type: in vivo; conditions: 2 μl of 12.5 μg/μl into vitreous humor after 5 days of 1 mg/kg dl-amphetamine i.p.; measured three hours after injection; versus 80% DMSO vehicle; FIG. 4
Protocol: Lesions to the brain dopamine systems in mammalian brain serve as models for various neuropsychiatric disorders. When drugs such as amphetamines are administered to animals for a certain period of time psychotic symptoms develop such as increased activity, agitation and decreased latency time to perform various motor tasks. In other words, opposite to those symptoms seen in Parkinson's disease, the time to perform various motor tasks decreased: they perform them quicker.
At appropriate concentrations, the addictive drug, dl-amphetamine (1 mg/kg) was injected intraperitoneally to produce psychosis and addiction in Sprague-Dawley rats. After 5 days of such treatment each animal was tested for their level of activity in a computerized activity chamber and on three motor tests. On the day after completion of the injections half the animals received a 2 μl injection of haloperidol (12.5 μg/μl) into the vitreous humor, just in front of the retina. The other half of the animals received a 2 μl injection of vehicle (80% DMSO solution) into the vitreous humor. The effects of such injections on various parameters of movement, such as the latency to ambulate and the latency to retract a front paw, were measured three hours after animals received their intravitreal injection. […]

Compound | horizontal movement ([1]; FIG. 1) | ability to retract/move the front limb ([1]; FIG. 2) | latency to ambulate from a prescribed area [2] | latency to retract an elevated limb [2]
COc1ccc2[nH]cc(CCNc3ccc([N+](=O)[O-])cc3[N+](=O)[O-])c2c1 [ML-23] | better horizontal movement | better performance on the ability to move the front limb |  | 
O=C(CCCN1CCC(O)(c2ccc(Cl)cc2)CC1)c1ccc(F)cc1 [haloperidol] |  |  | increased | increased
